Laboratory results taken from publication PMC11207073, “Protein Tyrosine Phosphatase 1B Inhibitors of Pueraria lobata Based on the Spectrum–Effect Relationship by Q-Marker Selection” (Molecules, 2024).

Target: T1, Protein tyrosine phosphatase 1B (PTP1B) (Homo sapiens, UniProt P18031)
T1 construct: gene PTPN1
T1 sequence (P18031 1-435): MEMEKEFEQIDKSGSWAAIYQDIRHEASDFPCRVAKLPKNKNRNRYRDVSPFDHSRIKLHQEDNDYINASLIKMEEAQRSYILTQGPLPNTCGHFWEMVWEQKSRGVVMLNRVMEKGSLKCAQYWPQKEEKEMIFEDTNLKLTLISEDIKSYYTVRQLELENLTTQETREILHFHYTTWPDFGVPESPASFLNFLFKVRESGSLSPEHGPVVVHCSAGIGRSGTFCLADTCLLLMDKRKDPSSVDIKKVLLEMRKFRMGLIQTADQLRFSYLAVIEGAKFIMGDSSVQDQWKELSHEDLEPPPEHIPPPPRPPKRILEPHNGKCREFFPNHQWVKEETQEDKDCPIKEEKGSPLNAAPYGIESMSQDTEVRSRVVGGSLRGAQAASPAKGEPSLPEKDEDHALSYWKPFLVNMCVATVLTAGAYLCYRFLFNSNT
Assay: pNPP phosphatase assay with commercial PTP1B, absorbance at […] nm
Format: biochemical

IC50 | SMILES
23.7 µM | COc1cc2c(=O)c(-c3ccc(O)cc3)coc2cc1O[C@@H]1O[C@H](CO)[C@@H](O)[C@H](O)[C@H]1O (single isomer, unassigned) [peak 9, glycitin]
38.1 µM | O=c1c(-c2ccc(O)cc2)coc2cc(O[C@@H]3O[C@H](CO)[C@@H](O)[C@H](O)[C@H]3O)cc(O)c12 (single isomer, unassigned) [peak 11, genistin]
21.7 µM | COc1ccc(-c2coc3c([C@@H]4O[C@H](CO)[C@@H](O)[C@H](O)[C@H]4O)c(O)ccc3c2=O)cc1 (single isomer, unassigned) [peak 12, 4′-methoxypuerarin]
